Results from the NIST ThermoML archive (doi:10.1016/j.tca.2019.05.011).
± gives the expanded uncertainty stated by the source.

How the values were obtained:
[1] = Liquid, Closed cell (Static) method
[2] = molar heat capacity at constant pressure; settings: 101.33 kPa, Liquid, Vacuum adiabatic calorimetry

CC(C)O [propan-2-ol]
Settings	molar heat capacity at constant pressure [J/K/mol]	vapor or sublimation pressure [kPa]
[1], 297.8 K	–	5.781 ± 0.12
[1], 303.1 K	–	7.995 ± 0.17
[1], 315.8 K	–	16.22 ± 0.34
[1], 332.1 K	–	36.06 ± 0.74
[1], 344.7 K	–	63.92 ± 1.3
[2], 190 K	111.12 ± 1.8	–
[2], 200 K	112.89 ± 1.8	–
[2], 210 K	115.01 ± 1.8	–
[2], 220 K	117.52 ± 1.8	–
[2], 230 K	120.46 ± 1.8	–
[2], 240 K	123.87 ± 1.8	–
[2], 250 K	127.81 ± 1.8	–
[2], 260 K	132.31 ± 1.8	–
[2], 270 K	137.41 ± 1.8	–
[2], 280 K	143.19 ± 1.8	–
[2], 290 K	149.68 ± 1.8	–
[2], 300 K	156.94 ± 1.8	–
[2], 310 K	165.02 ± 1.8	–
[2], 320 K	173.99 ± 1.8	–
[2], 330 K	183.9 ± 1.8	–
